According to US5041426A, “Immune system enhancing 3-β-d-ribofuranosylthiazolo[4,5-d]pyridimine nucleosides and nucleotides” (priority 1988, dated 1991):
Where “and” joins values, the source holds several entries; their conditions need not be identical. Equal entries are not always repeated. Where two headings read alike, the source gives them in different places.

Experiments:
sheep red blood cells = experiment: Primary anti-sheep red blood cell antibody response in mice (plaque assay); format: in vivo, mouse; settings: C57BL/6, + SRBC, day 6
Procedure: Compound 7 was tested to determine its effects on primary antibody response against sheep red blood cells in vivo. Mice (C57BL/6) in groups of 4 were injected intraperitoneally with 0.1% sheep red blood cell suspended in saline. At various times compound 7 in various concentrations was administered intraperitoneally.
^a Groups of four C57BL/6 mice were injected i.p. with 6.5 ×
10^6 SRBC and various doses of compound 7. The number of PFC to SRBC
(shown as mean ± SD) were determined on day 6 as described in Cheever.
For Table 9 the number of antibody cells was determined by the modified Jerne, Nordin plaque assay as disclosed in Jerne, N. K., Nordin, A. A., Science 140:405, 1963.

[1] = system: Herpes Simplex Virus Type 2; experiment: Antiviral activity against Herpes simplex virus type 2 infection in mice; format: in vivo, mouse; settings: for Mean Survival Time: at -48, -24, and -2 h
Procedure: In this test Compound 7 was tested against both Herpes Simplex Type 1 Virus and Herpes Simplex Type 2 Virus. […] In each of these tests a placebo was utilized for control purposes. The survival time reflects survival time of those animals which succumbed during the test. […]
^b A 2% sodium bicarbonate solution was used as the placebo and as
diluent for Compound -7.
^c Statistically significant (p < .05) difference between the
drugtreated and placebo control mice, determined by the twotailed ttest.

San Angelo Virus = format: in vivo, mouse; settings: for Mean Survival Time: Time (21 days)
P8/5 tumor target cells = experiment: Activation of macrophages following single injection in CBA/CaJ mice; format: in vivo; settings: Mus musculus, Macrophage
Procedure: The activity of compound 7 with respect to its ability to activate macrophages was tested by injecting CBA/CaJ mice with a single dose of compound 7 (2 mg per mouse) and after 24 hours the cytotoxicity of the spleen cells (SC), non adherent SC and adherent SC was determined.
^a A group of four mice (CBA/CaJ) were injected with 2 mg/mouse of
compound -7 solution. Control group received saline. After 24 hours of
injection, spleens were harvested. Adherent and nonadherent cells were
separated by incubation of spleen cells on plastic plates for one hour.
Cell suspension of spleen cells, nonadherent cells (NC) and adherent cell
(AC) were prepared in complete medium. Cytotoxicity of SC, NC and AC was
then measured against P8/5 tumor t arget cells in 4 hrs and 20 hrs
chromium release assay.

[2] = system: Reticulum-cell Sarcoma M5076; experiment: Reduction of reticulum-cell sarcoma metastatic foci in mice; format: in vivo, mouse
Procedure: Utilizing the protocol of Alessandri, G., Giavazzi, R., Falautano, P., Spreafico, F., Garattini, S., and Mantovani, A., European J. Cancer, 17:651-658, 1981, the antimetastatic activity of Compound 7 is seen in a sarcoma M5076 tumor system.
Fragments of reticulum-cell sarcoma M5076 were introduced into mice. The animals were treated with compound 7 for 20 days at various dosages. After treatment, the required tissues were collected, fixed in Bouin's solution and subjected to microscopic observation to enumerate metastatic foci. The results are shown in table 26 as the number of metastatic foci and table 27 as the number of mice with metastatic foci. In table 26 both the range and the median number of foci for each test group is indicated.
(§1) ^a Fragments of reticulumcell sarcoma M5076 (≈14 mg) were
(§2) implanted sc in the left flank of BDF1 female mice and ip bolus
(§3) injections of drug were initiated 24 hrs later. The drug was delivered on
(§4) the basis of 0.01 ml/g mouse weight. Control mice received a 0.09%
solution of NaCl delivered on the same basis. Seven mice were used per
treatment group. Treatment give qd for days 1- 20.

[3] = system: Reticulum-cell Sarcoma M5076; experiment: Mean life span of mice with metastatic reticulum-cell sarcoma; format: in vivo, mouse
Procedure: Effect of drug treatment on the mean life span of host animals implanted with metastatic reticulum-cell sarcoma M5076 was measured using the same test protocol as per example 54. The host animals were drug dosed for 20 days as per example 54, however, as opposed to example 54 they were monitored for survival.
as §1, §2, §3, §4
solution of NaCl delivered on the same basis. Six mice were used per
treatment group. Treatment give qd for days 1-20 and animals monitored
after treatment for survival.

[4] = 62 mg/kg ip qd days 1-20, p < 0.005

## Nc1nc2c(sc(=O)n2[C@@H]2O[C@H](CO)[C@@H](O)[C@H]2O)c(=O)[nH]1 [Compound 7, 5-Amino-3-β-D-ribofuranosylthiazolo[4,5-d]pyrimidine-2,7(6H)-dione]
Sheep red blood cells; 1.9 mg i.p.
  PFC/10^6 Spleen Cells: 143 ± 140 PFC/10^6 Spleen Cells
Sheep red blood cells; 2.97 mg i.p.
  PFC/10^6 Spleen Cells: 307 ± 156 PFC/10^6 Spleen Cells and 165 ± 28 PFC/10^6 Spleen Cells
Sheep red blood cells; 3.3 mg i.p.
  PFC/10^6 Spleen Cells: 176 ± 105 PFC/10^6 Spleen Cells
Sheep red blood cells; 4.95 mg i.p.
  PFC/10^6 Spleen Cells: 467 ± 170 PFC/10^6 Spleen Cells and 433 ± 172 PFC/10^6 Spleen Cells
Sheep red blood cells; 4.97 mg i.p.
  PFC/10^6 Spleen Cells: 371 ± 56 PFC/10^6 Spleen Cells
[1]; 50 mg/kg/day
  Mean Survival Time: 11.8 ± 2.3 days
[1]; 100 mg/kg/day
  Mean Survival Time: 11.2 ± 1.5 days
[1]; 200 mg per kg in the mouse
  toxicity: partially toxic
[1]; 200 mg/kg/day
  Mean Survival Time: 7.2 ± 3.9 days
[1]; 200 mg/kg/day, days 1 and 2 post virus inoculation
  deaths from drug toxicity: Three mice died on days 1 and 2
[1]; 200 mg/kg/day, excluding three toxicity deaths
  survival time of the rest of the mice that died: 9.6 ± 0.8 days
San Angelo Virus; 50 mg/kg/day, once a day at -2 h and days 2, 4, 6
  Mean Survival Time: > 13.0 ± 0.0 days
San Angelo Virus; 100 mg/kg/day, once a day at -2 h and days 2, 4, 6
  Mean Survival Time: > 21 days
San Angelo Virus; 200 mg/kg/day, -2 h and days 2, 4, 6, half daily doses twice a day
  Mean Survival Time: > 21 days
San Angelo Virus; 200 mg/kg/day, half-daily doses at 24 and 16 h pre-virus (prophylactic)
  Mean Survival Time: > 21 days
San Angelo Virus; therapeutic and prophylactic mode
  antiviral activity compared with Ribavirin: antiviral activity equal to that of Ribavirin
P8/5 tumor target cells; 4 h, adherent cells, 4 hrs assay
  cytotoxicity at 2 mg: 37%
P8/5 tumor target cells; 4 h, nonadherent spleen cells, 4 hrs assay
  cytotoxicity at 2 mg: 45%
P8/5 tumor target cells; 20 h, adherent cells, 20 hrs assay
  cytotoxicity at 2 mg: 69%
P8/5 tumor target cells; 20 h, nonadherent spleen cells, 20 hrs assay
  cytotoxicity at 2 mg: 70%
[2]; 37 mg/kg ip qd days 1-20
  Mice With Metastatic Foci in Lung (+/7): 7/7
  Number of Metastatic Foci in Liver, Range: 0-17
  Number of Metastatic Foci in Lung, Range: 1-11
[2]; 37 mg/kg ip qd days 1-20, p < 0.005
  Number of Metastatic Foci in Liver, Medium: 1
[2]; 37 mg/kg ip qd days 1-20, p < 0.01
  Number of Metastatic Foci in Lung, Median: 6
[2]; 37 mg/kg ip qd days 1-20, p < 0.05
  Mice With Metastatic Foci in Liver (+/7): 4/7
[2]; 62 mg/kg ip qd days 1-20
  Mice With Metastatic Foci in Lung (+/7): 6/7
  Number of Metastatic Foci in Liver, Range: 0-1
  Number of Metastatic Foci in Lung, Range: 0-29
[2]; [4]
  Mice With Metastatic Foci in Liver (+/7): 1/7
  Number of Metastatic Foci in Liver, Medium: 0
[2]; 62 mg/kg ip qd days 1-20, p < 0.09
  Number of Metastatic Foci in Lung, Median: 2
[2]; 104 mg/kg ip qd days 1-20
  Number of Metastatic Foci in Liver, Range: 0-0
  Number of Metastatic Foci in Lung, Range: 0-4
[2]; 104 mg/kg ip qd days 1-20, p < 0.0005
  Mice With Metastatic Foci in Liver (+/7): 0/7
[2]; 104 mg/kg ip qd days 1-20, p < 0.0009
  Number of Metastatic Foci in Liver, Medium: 0
[2]; 104 mg/kg ip qd days 1-20, p < 0.003
  Number of Metastatic Foci in Lung, Median: 0
[2]; 104 mg/kg ip qd days 1-20, p < 0.025
  Mice With Metastatic Foci in Lung (+/7): 3/7
[3]; 37 mg/kg ip qd days 1-20
  Increased Life Span: 7.0 % of Control
  Postinoculation Life Span: 32.33 ± 3.67 days
[3]; 62 mg/kg ip qd days 1-20
  Increased Life Span: 19.8 % of Control
[3]; 62 mg/kg ip qd days 1-20, p 0.01
  Postinoculation Life Span: 36.33 ± 0.82 days
[3]; 104 mg/kg ip qd days 1-20
  Increased Life Span: 20.3 % of Control
[3]; 104 mg/kg ip qd days 1-20, p < 0.03
  Postinoculation Life Span: 36.50 ± 4.55 days
